Experimental data reported in patent publication US20110097409A1, “PARTICLES COMPRISING A SALT OF 8-HYDROXY-2-[[(1R)-2-(4-METHOXYPHENYL)-1-METHYLETHYL]AMINO]ETHYL]-2(1H)-QUINOLINONE HAVING IMPROVED ADHESION PROPERTIES FOR POWDER FORMULATIONS FOR INHALATION” (Chiesi Farmaceutici S.p.A., priority 2008, published 2011).
Structures can show the parent of a compound that is named as a salt.

Legend:
[1] = Shape factor SF and particle shape from SEM images; assay type: physicochemical
Procedure: Accordingly, the powder particles of the invention are characterized by a “shape factor” SF comprised between 0.8 and 1.0, preferably from 0.85 and 0.95 as determined according to the following equation reported in Kumar S et al., Curr. Appl. Phys. Influence of metal powder shape on drag coefficient in a spray jet, 2008, in press doi:10.1016/j.cap.2008.06.005.
RN indicates the roundness of the particle and is calculated by applying the following formula: […]
wherein p and A are the mean perimeter and area values, respectively, of ten spherical particles as measured from Scanning electron microscopy (SEM) images.
The shape factor of the obtained particles, calculated according to the equation reported in the Detailed Description of the Preferred Embodiments, turned out to be comprised between 0.87 and 0.95.

[2] = Force and work of adhesion by atomic force microscopy (colloid probe); assay type: physicochemical; conditions: against smooth lactose carrier
From the text: The force of adhesion of the batches of powder particles obtained in Example 1 has been determined according to the procedure reported hereafter in comparison to those to those of micronised carmoterol hydrochloride and budesonide raw materials (r.m.) obtained by a conventional milling process.
As a substrate, alpha-lactose particles with a smooth surface having the characteristics reported in EP 1 196 146 and obtained as therein described are used.
An Atomic Force Microscope (AFM) as a scanning probe microscope is used to image lactose surface on an nm or even sub-nm level and to measure surface forces between the powder particles of the invention and particles of smoothed lactose.
A way to get information on the surface forces which are acting in a system and to illustrate the functioning of an AFM, is to use the “Force-Mode”. This is done by moving the tip towards and away from the surface. Recording photodetector signal as a function of z-piezo elongation yields a curve which can be interpreted as a force-vs.-distance-curve. In this work, this technique has been employed to measure the drug-carrier adhesion force modifying the original cantilever.
The interaction of the micron-sized carmoterol particles with lactose carrier surfaces is conducted using the Explorer AFM (Thermomicroscopes, UK). A multistage micromanipulation method for the attachment of micrometer-sized drug particles to tipless cantilevers was adapted from the method described by Preuss and Butt (Preuss M, Butt H-J. 1998, Langmuir, 14:3164-3174). Essentially, colloid probes are prepared by mounting an individual drug particle (approximate diameter 3-5 μm) onto a V-shaped tiples silicon nitride cantilever (spring constant k=0.58 N/m, Veeco Instruments Ltd., Cambridge, UK) using a quick-setting epoxy resin together with the custom-built microscope.
Force separation measurements are collected using layered imaging mode to produce multiple force distance curves (n=250) between each drug probe at three surface sites over a 10 μm×10 μm area. As the variability in probe contact radius geometry was unknown each study is performed at least in triplicate (n=3 to 4 probes for each measurement).
The displacement curves for each of the 250 contact points in the 10 μm×10 μm sector are plotted using a custom built MatLab program (The Mathworks Inc. USA).
The force of adhesion (the apex of the adhesion peak) and the work of adhesion (integrated area of the adhesion peak) is calculated for each graph. […] Outliers are defined as data points outside the 5-95% limits of the normal distributions obtained, and these are removed automatically by the batch conversion software. […]

shape factor SF ([1]; SF=1/RN, RN=p^2/4πA, from SEM images): 0.51
particle shape by SEM inspection ([1]; scanning electron microscope, FIG. 1): different irregular flakes and/or sheets
Force of adhesion Fmax ([2]; particle population (20%)): 11.03 ± 1.27 (20%) nN
Work of adhesion Wad ([2]; particle population (20%)): 413.15 ± 131.85 µJ
Force of adhesion Fmax ([2]; particle population (80%)): 42.68 ± 4.63 (80%) nN
Work of adhesion Wad ([2]; particle population (80%)): 2115.69 ± 344.31 µJ
Structure (SMILES): COc1ccc(C[C@@H](C)NC[C@H](O)c2ccc(O)c3[nH]c(=O)ccc23)cc1 [Carmoterol HCl r.m., 8-hydroxy-5-[(1R)-1-hydroxy-2-[[(1R)-2-(4-methoxyphenyl)-1-methylethyl]amino]ethyl]-2(1H)-quinolinone]
